Laboratory results published in patent EP0745597A2, “Novel melatonergic indanyl piperazines or homopiperazines” (BRISTOL-MYERS SQUIBB COMPANY, priority 1995, dated 1996).
“And” between values parts separate entries of the source, which are not always exact repeats. Equal entries are not always repeated.

Target: T1, human ML1B receptor (Homo sapiens, UniProt P49286)
T1 construct: host or cells: NIH 3T3 cells, stably transfected; membrane homogenates
T1 sequence (P49286 1-362): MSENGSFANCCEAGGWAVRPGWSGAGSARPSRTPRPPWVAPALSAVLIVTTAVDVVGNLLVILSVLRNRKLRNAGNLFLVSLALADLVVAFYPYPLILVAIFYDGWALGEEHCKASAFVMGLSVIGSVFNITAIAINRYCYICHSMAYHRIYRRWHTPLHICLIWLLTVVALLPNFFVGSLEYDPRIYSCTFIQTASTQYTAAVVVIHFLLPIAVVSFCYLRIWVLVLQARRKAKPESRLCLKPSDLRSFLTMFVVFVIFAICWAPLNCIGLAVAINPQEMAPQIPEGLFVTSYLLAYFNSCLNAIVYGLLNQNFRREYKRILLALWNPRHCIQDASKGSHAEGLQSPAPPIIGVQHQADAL
Assay: Measurement of binding to melatonergic receptors (2-[125I]-iodomelatonin, membranes of transfected NIH 3T3 cells)
Details: 2-[125I]-Iodomelatonin 200 pM, 37 °C for 1 hour, NIH 3T3 cells stably transfected with the human ML1B receptor; read-out: Melatonin Binding
Method: The melatonergic binding affinities of various compounds of Formula I were determined by the method of Reppert, S. M., Weaver, D. R., and Ebisawa, R. (Neuron, Volume 13, 1177-1185, 1994). The assays were incubated at 37 °C for 1 hour, and the reaction was terminated by filtration. The filters were washed with wash buffer. […] The reagents, membrane and other techniques used in the melatonergic binding assays are more fully described below: • 1. Reagents: • (a) 50 mM Tris buffer containing 12.5 mM MgCl2, and 2mM EDTA, pH 7.4 at 37 °C. • (b) Wash buffer: 20 mM Tris base containing 2 mM MgCl2. pH 7.4 at room temperature. • (c) Melatonin (10^-5 M final concentration). • (d) 2-[^125I]-Iodomelatonin, 200 pM final concentration Source: NEN • 2. Membrane preparation: NIH 3T3 cells stably transfected with the human ML1B receptor were obtained from S.M. Reppert and maintained. Cells were pelleted when confluent. The supernatant was discarded and the pellets frozen. For preparing membrane homogenates, the pellets are thawed on ice and resuspended in TME buffer, Tris base, MgCl2, EDTA (pH 7.4 at 37 °C ), supplemented with aprotinin, leupeptin, and […]. The cells were then homogenized and centrifuged. The resulting pellet was resuspended with a Dounce homogenizer in TME and frozen. At assay, a small aliquot was thawed on ice and resuspended in TME buffer. […] These compounds are considered active.

Row | SMILES | IC50
1 | CCCCCCCCCOc1ccc2c(c1)C(N1CCN(C(=O)C3CC3)CC1)CC2 (stereo not shown) [1-(Cyclopropylcarbonyl)-4-(6-nonyloxy-indan-1-yl)piperazine] | 100 to 250 nM
2 | COc1ccc2c(c1)C(N1CCN(C(=O)C3CC3)CC1)CCC2 (stereo not shown) [1-(Cyclopropylcarbonyl)-4-(7-methoxy-tetralin-1-yl)piperazine] | 100 to 250 nM
3 | O=C(C1CC1)N1CCN(C2CCc3ccccc32)CC1 (stereo not shown) [1-(Cyclopropylcarbonyl)-4-(indan-1-yl)piperazine] | 100 to 250 nM
4 | CCOC(=O)N1CCN(C2CCc3ccc(OC)cc32)CC1 (stereo not shown) [1-(Ethoxycarbonyl)-4-(6-methoxy-indan-1-yl)piperazine] | 100 to 250 nM
5 | COc1ccc2c(c1)C(N1CCN(C(C)=O)CC1)CC2 (stereo not shown) [1-Acetyl-4-(6-methoxy-indan-1-yl)piperazine] | 100 to 250 nM
6 | CCc1ccc2c(c1)C(N1CCN(C(=O)C(C)C)CC1)CC2 (stereo not shown) [4-(6-Ethyl-indan-1-yl)-1-(2-methylpropanoyl)piperazine] | 100 to 250 nM
7 | COc1ccc2c(c1)C(N1CCN(C(=O)C(C)C)CC1)CC2 (stereo not shown) [4-(6-Methoxy-indan-1-yl)-1-(2-methyl-propanoyl)piperazine] | < 10 nM and 100 to 250 nM
8 | CC(=O)NCCc1c(Cc2ccccc2)[nH]c2ccccc12 [Luzindole, reference compound] | 100 to 250 nM
9 | CCNC(=O)N1CCCN(C2CCc3ccc(OC)cc32)CC1 (stereo not shown) [N-Ethyl-4-(6-methoxy-indan-1-yl)homopiperazine-1-carboxamide] | 10 to 100 nM
10 | CCNC(=O)N1CCN(C2CCc3ccc(OC)cc32)CC1 (stereo not shown) [N-Ethyl-4-(6-methoxy-indan-1-yl)piperazine-1-carboxamide] | 10 to 100 nM
11 | CCCCCCCCCOc1ccc2c(c1)C(N1CCN(C(=O)NCC)CC1)CC2 (stereo not shown) [N-Ethyl-4-(6-nonyloxy-indan-1-yl)piperazine-1-carboxamide] | 10 to 100 nM
12 | CCCOc1ccc2c(c1)C(N1CCN(C(=O)NCC)CC1)CC2 (stereo not shown) [N-Ethyl-4-(6-propyloxy-indan-1-yl)piperazine-1-carboxamide] | 10 to 100 nM
13 | CCNC(=O)N1CCN(C2CCCc3ccc(OC)cc32)CC1 (stereo not shown) [N-Ethyl-4-(7-methoxy-tetralin-1-yl)piperazine-1-carboxamide] | 100 to 250 nM
14 | CNC(=O)N1CCN(C2CCc3cc(F)c(OC)cc32)CC1 (stereo not shown) [N-Methyl-4-(5-fluoro-6-methoxy-indan-1-yl)piperazine-1-carboxamide] | 10 to 100 nM
15 | CNC(=O)N1CCN(C2CCCc3ccc(OC)cc32)CC1 (stereo not shown) [N-Methyl-4-(7-methoxy-tetralin-1-yl)piperazine-1-carboxamide] | 10 to 100 nM

More lines, now with the values ahead:

Row | IC50 | SMILES
16 | 10 to 100 nM | CCCOc1ccc2c(c1)C(N1CCN(C(=O)C3CC3)CC1)CC2 (stereo not shown) [1-(Cyclopropylcarbonyl)-4-[6-(1-propyloxy)indan-1-yl]piperazine]
17 | 10 to 100 nM | C=CC(=O)N1CCN(C2CCc3ccc(OC)cc32)CC1 (stereo not shown) [1-(Ethenylcarbonyl)-4-(6-methoxy-indan-1-yl)piperazine]
18 | 10 to 100 nM | COCC(=O)N1CCN(C2CCc3ccc(OC)cc32)CC1 (stereo not shown) [1-(Methoxyacetyl)-4-(6-methoxy-indan-1-yl)piperazine]
19 | 10 to 100 nM | COc1ccc2c(c1)C(N1CCN(C(C)=O)CC1)CCC2 (stereo not shown) [1-Acetyl-4-(7-methoxy-tetralin-1-yl)piperazine]
20 | < 10 nM | CCCC(=O)N1CCN(C2CCc3ccc(OC)cc32)CC1 (stereo not shown) [1-Butanoyl-4-(6-methoxy-indan-1-yl)piperazine]
21 | < 10 nM | C=C(C)C(=O)N1CCN(C2CCc3ccc(OC)cc32)CC1 (stereo not shown) [1-[(1-Methyl-ethenyl)carbonyl]-4-(6-methoxy-indan-1-yl)piperazine]
22 | < 10 nM | COc1ccc2c(c1)C(N1CCN(C(=O)c3ccco3)CC1)CC2 (stereo not shown) [1-[(2-Furanyl)carbonyl]-4-(6-methoxy-indan-1-yl)piperazine]
23 | 10 to 100 nM | COc1cc2c(cc1F)CCC2N1CCN(C(=O)C(C)C)CC1 (stereo not shown) [4-(5-Fluoro-6-methoxy-indan-1-yl)-1-(2-methylpropanoyl)piperazine]
24 | 10 to 100 nM | CCC(C)C(=O)N1CCN(C2CCc3ccc(OC)cc32)CC1 (stereo not shown) [4-(6-Methoxy-indan-1-yl)-1-(2-methyl-butanoyl)piperazine]
25 | 10 to 100 nM | COc1ccc2c(c1)C(N1CCCN(C(=O)C(C)C)CC1)CC2 (stereo not shown) [4-(6-Methoxy-indan-1-yl)-1-(2-methyl-propanoyl)homopiperazine]
26 | < 10 nM | COc1ccc2c(c1)C(N1CCN(C(=O)c3cccs3)CC1)CC2 (stereo not shown) [4-(6-Methoxy-indan-1-yl)-1-[(2-thienyl)carbonyl]piperazine]
27 | 10 to 100 nM | CCC(=O)N1CCN(C2CCc3ccc(OC)cc32)CC1 (stereo not shown) [4-(6-Methoxy-indan-1-yl)-1-propanoylpiperazine]
28 | 10 to 100 nM | COc1ccc2c(c1)C(N1CCN(C(=O)N(C)C)CC1)CC2 (stereo not shown) [N,N-Dimethyl-4-(6-methoxy-indan-1-yl)piperazine-1-carboxamide]
29 | 10 to 100 nM | COc1ccc2c(c1)C(N1CCN(C(=O)NC(C)C)CC1)CC2 (stereo not shown) [N-(1-Methylethyl)-4-(6-methoxy-indan-1-yl)piperazine-1-carboxamide]
30 | 10 to 100 nM | CCCNC(=O)N1CCN(C2CCc3ccc(OC)cc32)CC1 (stereo not shown) [N-(n-Propyl)-4-(6-methoxy-indan-1-yl)piperazine-1-carboxamide]
31 | < 10 nM | COc1ccc2c(c1)C(N1CCN(C(=O)NC3CC3)CC1)CC2 (stereo not shown) [N-Cyclopropyl-4-(6-methoxy-indan-1-yl)piperazine-1-carboxamide]
32 | 10 to 100 nM | CCNC(=O)N1CCN(C2CCc3cc(F)c(OC)cc32)CC1 (stereo not shown) [N-Ethyl-4-(5-fluoro-6-methoxy-indan-1-yl)piperazine-1-carboxamide]
33 | 10 to 100 nM | CCNC(=O)N1CCN(C2CCc3ccc(OCC)cc32)CC1 (stereo not shown) [N-Ethyl-4-(6-ethoxy-indan-1-yl)piperazine-1-carboxamide]
34 | < 10 nM | CNC(=O)N1CCN(C2CCc3ccc(OC)cc32)CC1 (stereo not shown) [N-Methyl-4-(6-methoxy-indan-1-yl)piperazine-1-carboxamide]
